Assay results from patent US12458661B2, “Selenium disulfide compositions for use in treating meibomian gland dysfunction” (priority 2016, dated 2025).

Experiment: Aggregation of SeS2 on contact with aqueous medium
Type: physicochemical
Source text: Contacting SeS2 with aqueous medium causes immediate and spontaneous aggregation, such that SeS2 particles with an average size of 5 to 10 microns will form large aggregates of 50 to 500 microns average size. […] Surfactants and various suspending agents are required to stabilize SeS2 suspension in liquid and semi-solid dosage forms in order to enable its topical application.
Selenium disulfide forms agglomerates under aqueous conditions. Contacting selenium disulfide with aqueous medium causes immediate and spontaneous aggregation, causing selenium disulfide particles, with an initial average diameter of 5 to 10 μm, to aggregate into large clumps of 50 to 500 μm average diameter.

S=[Se]=S [SeS2, selenium disulfide]
Average size of aggregates formed on contact with aqueous medium (SeS2 particles of initial average size 5 to 10 microns): 50 to 500 microns | Average diameter of clumps formed on contact with aqueous medium (initial average diameter 5 to 10 μm): 50 to 500 μm
